Measurements as given in US5258492A, “LHRH analogues with cytotoxic moieties at the sixth position” (The Administrators of the Tulane Educational Fund, priority 1991, dated 1993).

Tests used:
[1] = tested on: dispersed rat pituitary cell superfusion system; assay: LH release in dispersed rat pituitary cell superfusion system (agonistic activity); format: cell-based; conditions: Table 1; peptide infused 3 min, LH released compared to 3 nM LHRH
Experimental: *LH responses to the analogues were determined in dispersed rat pituitary
cell superfusion system.

[2] = molecular target: T1, membrane receptors of pituitary of male rats (Rattus norvegicus, UniProt P30969); assay: Binding affinity for membrane receptors of rat pituitary using 125I-labeled [D-Trp6]LHRH; conditions: Table 1, high affinity binding sites
T1 construct: from tissue; host or cells: pituitary of male rats (membranes)
T1 sequence (P30969 1-327): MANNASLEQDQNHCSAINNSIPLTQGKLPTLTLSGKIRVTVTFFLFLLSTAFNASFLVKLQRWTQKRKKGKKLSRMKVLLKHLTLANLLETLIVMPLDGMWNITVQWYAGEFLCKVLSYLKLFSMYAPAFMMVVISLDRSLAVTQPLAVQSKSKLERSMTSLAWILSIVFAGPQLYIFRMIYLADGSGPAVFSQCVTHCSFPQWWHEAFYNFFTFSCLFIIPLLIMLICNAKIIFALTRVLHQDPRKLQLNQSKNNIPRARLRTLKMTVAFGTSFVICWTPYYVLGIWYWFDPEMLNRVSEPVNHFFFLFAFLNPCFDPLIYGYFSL
Experimental: (§1) This is determined by using labelled LHRH and [D-Trp^6 ]LHRH. The assay is carried out similarly to that described by T. Kadar et al., Proc. Natl. Acad. Sci. USA, 85, 890-894 (1988).
(§2) Table 2 presents the antiovulatory activity of the claimed compounds having LHRH-inhibiting properties. The inhibitory action was determined in vivo, in 4-day cycling rats as described [A. Corbin and C. W. Beattie, Endocr. Res. Commun., 2, 1-23 (1975)]. Affinities of the claimed compounds to membrane receptors of rat pituitary and human breast cancer cells are also given in Tables 1 and 2 as determined by using [^125 I,D-Trp^6 ]LHRH.
(§3) **Affinity constants of the peptides for the first receptor class (i.e.
(§4) for high affinity binding sites) of pituitary of male rats and human
(§5) breast cancer cells, respectively, as determined by using ^125
(§6) Ilabeled [DTrp^6 ]LHRH.
(§7) breast cancer cells, respectively, were determined by using ^125

[3] = molecular target: T2, membrane receptors of human breast cancer cells (Homo sapiens, UniProt P30968); assay: Binding affinity for membrane receptors of human breast cancer cells using 125I-labeled [D-Trp6]LHRH; conditions: Table 1, high affinity binding sites
T2 construct: endogenous in cells; host or cells: human breast cancer cells (membranes)
T2 sequence (P30968 1-328): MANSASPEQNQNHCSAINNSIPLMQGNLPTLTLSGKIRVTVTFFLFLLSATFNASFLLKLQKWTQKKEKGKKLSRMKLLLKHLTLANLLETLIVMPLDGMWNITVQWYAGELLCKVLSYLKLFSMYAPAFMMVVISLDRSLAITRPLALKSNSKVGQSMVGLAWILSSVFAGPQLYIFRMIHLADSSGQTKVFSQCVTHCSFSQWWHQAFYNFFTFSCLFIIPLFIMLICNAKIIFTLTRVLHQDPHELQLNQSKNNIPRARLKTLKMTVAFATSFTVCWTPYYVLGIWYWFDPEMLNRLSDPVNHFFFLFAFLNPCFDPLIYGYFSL
Experimental: as §1, §2, §3, §4, §5, §6, §7

[4] = tested on: rat mammary tumor cell line MT-4; assay: Inhibition of 3H-thymidine incorporation into DNA of MT-4 monolayer cultures; format: cell-based; conditions: for DPM/Well × 1000: mean +/- standard error
Experimental: (d) Ability of peptides of Formula I to inhibit incorporation of [^3 H]thymidine into DNA of monolayer cultures the rat mammary tumor cell line MT-4
This is assayed as described [V. K. Sondak et al., Cancer Research, 44, 1725-1728 (1984); F. Holzel et al., J. Cancer Res. Clin. Oncol. 109, 217-226 (1985); M. Albert et al., J. Cancer Res. Clin. Oncol. 109, 210-216 (1985)].
To obtain information about the cytotoxic properties of the compounds, the inhibition of ^3 H-thymidine incorporation into DNA of monolayer cultures of the rat mammary tumor cell line MT-4 was studied. Experiments started with 100K MT-4 cells/plate on day 0. Dose was changed 3 times, total incubation time with the sample was 5 days. 1 μCu ^3 H-thymidine/ml was added on day 4.

[5] = DME Medium + 0% Serum, 1 ng/ml (6 × 10^-10 M)
[6] = DME Medium + 0% Serum, 10 ng/ml
[7] = DME Medium + 0% Serum, 100 ng/ml
[8] = DME Medium + 0% Serum, 1000 ng/ml
[9] = DME Medium + 0% Serum, 2000 ng/ml
[10] = DME Medium + 10% Serum, 1 ng/ml (6 × 10^-10 M)
[11] = DME Medium + 10% Serum, 10 ng/ml
[12] = DME Medium + 10% Serum, 100 ng/ml
[13] = DME Medium + 10% Serum, 1000 ng/ml
[14] = DME Medium + 10% Serum, 2000 ng/ml

## pGlu-His-Trp-Ser-Tyr-D-Lys[(Cu^++)(FUR)2 (DL-A2 pr)]-Leu-Arg-Pro-Gly-NH2 [XVII]
[1]
  Hormonal activity, LH responses rel. to LHRH (= 1): 10
[2]
  Binding affinity, Ka1, for membrane receptors of pituitary: 1.770 nM⁻¹
[3]
  Binding affinity, Ka1, for membrane receptors of cancer cells: 0.536 nM⁻¹

## pGlu-His-Trp-Ser-Tyr-D-Lys[(Cu^++)(PEN)2 (A2 pr)]-Leu-Arg-Pro-Gly-NH2 [Example XXI]
[1]
  Hormonal activity, LH responses rel. to LHRH (= 1): 10.6
[2]
  Binding affinity, Ka1, for membrane receptors of pituitary: 10.989 nM⁻¹
[3]
  Binding affinity, Ka1, for membrane receptors of cancer cells: 5.096 nM⁻¹

## pGlu-His-Trp-Ser-Tyr-D-Lys[(Cu^++)(POL)2 (DL-A2 bu)]-Leu-Arg-Pro-Gly-NH2 [XXV]
[1]
  Hormonal activity, LH responses rel. to LHRH (= 1): 5.5
[2]
  Binding affinity, Ka1, for membrane receptors of pituitary: 6.405 nM⁻¹
[3]
  Binding affinity, Ka1, for membrane receptors of cancer cells: 3.141 nM⁻¹

## pGlu-His-Trp-Ser-Tyr-D-Lys[(Cu^++)(POLP)2 (DL-A2 bu)]-Leu-Arg-Pro-Gly-NH2 [Example XVI]
[1]
  Hormonal activity, LH responses rel. to LHRH (= 1): 1.5
[2]
  Binding affinity, Ka1, for membrane receptors of pituitary: 9.751 nM⁻¹
[3]
  Binding affinity, Ka1, for membrane receptors of cancer cells: 5.038 nM⁻¹

## pGlu-His-Trp-Ser-Tyr-D-Lys[(Cu^++)(SAL)2 (A2 pr)]-Leu-Arg-Pro-Gly-NH2 [Example VII]
[1]
  Hormonal activity, LH responses rel. to LHRH (= 1): 10
[2]
  Binding affinity, Ka1, for membrane receptors of pituitary: 7.968 nM⁻¹
[3]
  Binding affinity, Ka1, for membrane receptors of cancer cells: 3.589 nM⁻¹
[4]; [5]
  % Inhibition: 41%
  DPM/Well × 1000: 249 +/- 30.5 DPM/Well × 1000
[4]; [6]
  % Inhibition: 42%
  DPM/Well × 1000: 242 +/- 32.1 DPM/Well × 1000
[4]; [7]
  % Inhibition: 56%
  DPM/Well × 1000: 186 +/- 13.2 DPM/Well × 1000
[4]; [8]
  % Inhibition: 52%
  DPM/Well × 1000: 204 +/- 40.9 DPM/Well × 1000
[4]; [9]
  % Inhibition: 41%
  DPM/Well × 1000: 249 +/- 45.1 DPM/Well × 1000
[4]; [10]
  % Inhibition: 53%
  DPM/Well × 1000: 48 +/- 8.6 DPM/Well × 1000
[4]; [11]
  % Inhibition: 61%
  DPM/Well × 1000: 40 +/- 6.7 DPM/Well × 1000
[4]; [12]
  % Inhibition: 59%
  DPM/Well × 1000: 42 +/- 10.4 DPM/Well × 1000
[4]; [13]
  % Inhibition: 65%
  DPM/Well × 1000: 36 +/- 5.1 DPM/Well × 1000
[4]; [14]
  % Inhibition: 62%
  DPM/Well × 1000: 39 +/- 4.6 DPM/Well × 1000
[4]; concentration of 6×10^-10 M
  inhibition of 3H-thymidine incorporation into DNA (in words): strong inhibitory effect

## pGlu-His-Trp-Ser-Tyr-D-Lys[(Cu^++)(SAL)2 (DL-A2 bu)]-Leu-Arg-Pro-Gly-NH2 [XIV]
[1]
  Hormonal activity, LH responses rel. to LHRH (= 1): 25
[2]
  Binding affinity, Ka1, for membrane receptors of pituitary: 5.589 nM⁻¹
[3]
  Binding affinity, Ka1, for membrane receptors of cancer cells: 1.628 nM⁻¹

## pGlu-His-Trp-Ser-Tyr-D-Lys[(Ni^++)(CISAL)2 (DL-A2 pr)]-Leu-Arg-Pro-Gly-NH2 [Example X]
[1]
  Hormonal activity, LH responses rel. to LHRH (= 1): 4
[2]
  Binding affinity, Ka1, for membrane receptors of pituitary: 4.513 nM⁻¹
[3]
  Binding affinity, Ka1, for membrane receptors of cancer cells: 2.236 nM⁻¹

## pGlu-His-Trp-Ser-Tyr-D-Lys[(PtCl2)(DL-A2 pr)]-Leu-Arg-Pro-Gly-NH2 [Example III]
[1]
  Hormonal activity, LH responses rel. to LHRH (= 1): 55
[2]
  Binding affinity, Ka1, for membrane receptors of pituitary: 3.285 nM⁻¹
[3]
  Binding affinity, Ka1, for membrane receptors of cancer cells: 1.743 nM⁻¹

## pGlu-His-Trp-Ser-Tyr-D-Lys[Cu^++)(POL)2 (DL-A2 pr)]-Leu-Arg-Pro-Gly-NH2 [XVIII]
[1]
  Hormonal activity, LH responses rel. to LHRH (= 1): 9
[2]
  Binding affinity, Ka1, for membrane receptors of pituitary: 5.817 nM⁻¹
[3]
  Binding affinity, Ka1, for membrane receptors of cancer cells: 3.005 nM⁻¹

## pGlu-His-Trp-Ser-Tyr-D-Lys[Cu^++)(POLP)2 (A2 pr)]-Leu-Arg-Pro-Gly-NH2 [XIX]
[1]
  Hormonal activity, LH responses rel. to LHRH (= 1): 0.3
[2]
  Binding affinity, Ka1, for membrane receptors of pituitary: 8.676 nM⁻¹
[3]
  Binding affinity, Ka1, for membrane receptors of cancer cells: 4.528 nM⁻¹
